Measured values from ChEMBL document CHEMBL1153125, “Benzylidene cyclopentenediones: First irreversible inhibitors against botulinum neurotoxin A's zinc endopeptidase” (Bioorg Med Chem Lett, 2010).

What was measured:
[1] = molecular target: Botulinum neurotoxin type A (Clostridium botulinum, UniProt P0DPI0); assay: Inhibition of Clostridium botulinum BoNT/A
[2] = molecular target: Botulinum neurotoxin type A (Clostridium botulinum) (UniProt P0DPI0); assay: Ratio of Kinact to Ki for Clostridium botulinum BoNT/A
[3] = molecular target: 72 kDa type IV collagenase (Homo sapiens) (UniProt P08253); assay: Ratio of Kinact to Ki for MMP2
[4] = molecular target: Matrix metalloproteinase-9 (Homo sapiens) (UniProt P14780); assay: Ratio of Kinact to Ki for MMP9
[5] = Selectivity for Clostridium botulinum BoNT/A over MMP9

Botulinum neurotoxin type A (Clostridium botulinum), sequence (P0DPI0 2-448 limits assumed): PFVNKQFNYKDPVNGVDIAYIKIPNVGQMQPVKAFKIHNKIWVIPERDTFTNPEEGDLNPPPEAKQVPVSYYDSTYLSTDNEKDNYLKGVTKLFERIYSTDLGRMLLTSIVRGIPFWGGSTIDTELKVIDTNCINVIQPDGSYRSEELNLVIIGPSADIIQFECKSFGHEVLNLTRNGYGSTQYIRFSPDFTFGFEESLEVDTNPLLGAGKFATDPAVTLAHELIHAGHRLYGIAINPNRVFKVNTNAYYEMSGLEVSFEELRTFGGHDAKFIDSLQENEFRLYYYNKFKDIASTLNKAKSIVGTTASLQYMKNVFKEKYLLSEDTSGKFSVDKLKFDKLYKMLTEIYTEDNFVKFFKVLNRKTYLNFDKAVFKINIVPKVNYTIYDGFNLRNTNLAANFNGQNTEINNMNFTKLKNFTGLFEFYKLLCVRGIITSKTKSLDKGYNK
Matrix metalloproteinase-9 (Homo sapiens), sequence (P14780 whole entry): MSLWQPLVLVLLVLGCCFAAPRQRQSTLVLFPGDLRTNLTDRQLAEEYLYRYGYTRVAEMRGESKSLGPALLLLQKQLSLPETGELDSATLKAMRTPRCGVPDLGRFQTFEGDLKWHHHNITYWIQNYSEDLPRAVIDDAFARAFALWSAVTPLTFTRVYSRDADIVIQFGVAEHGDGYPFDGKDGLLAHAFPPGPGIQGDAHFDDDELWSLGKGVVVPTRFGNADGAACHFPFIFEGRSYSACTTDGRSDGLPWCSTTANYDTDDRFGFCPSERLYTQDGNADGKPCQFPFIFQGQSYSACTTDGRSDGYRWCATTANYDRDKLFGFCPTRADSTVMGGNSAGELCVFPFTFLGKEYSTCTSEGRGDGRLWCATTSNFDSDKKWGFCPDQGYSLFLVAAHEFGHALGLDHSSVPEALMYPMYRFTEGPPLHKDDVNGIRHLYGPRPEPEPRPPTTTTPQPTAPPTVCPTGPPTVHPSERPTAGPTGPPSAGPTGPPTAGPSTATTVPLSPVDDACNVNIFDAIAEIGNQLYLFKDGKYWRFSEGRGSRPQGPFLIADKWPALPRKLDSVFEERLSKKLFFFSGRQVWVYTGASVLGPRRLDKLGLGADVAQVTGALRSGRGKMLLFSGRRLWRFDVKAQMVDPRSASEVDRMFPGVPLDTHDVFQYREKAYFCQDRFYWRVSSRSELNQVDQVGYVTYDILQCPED
Botulinum neurotoxin type A, sequence (P0DPI0 2-448 limits assumed): as the sequence (P0DPI0 2-448 limits assumed) above
72 kDa type IV collagenase (Homo sapiens), sequence (P08253 110-660 limits assumed): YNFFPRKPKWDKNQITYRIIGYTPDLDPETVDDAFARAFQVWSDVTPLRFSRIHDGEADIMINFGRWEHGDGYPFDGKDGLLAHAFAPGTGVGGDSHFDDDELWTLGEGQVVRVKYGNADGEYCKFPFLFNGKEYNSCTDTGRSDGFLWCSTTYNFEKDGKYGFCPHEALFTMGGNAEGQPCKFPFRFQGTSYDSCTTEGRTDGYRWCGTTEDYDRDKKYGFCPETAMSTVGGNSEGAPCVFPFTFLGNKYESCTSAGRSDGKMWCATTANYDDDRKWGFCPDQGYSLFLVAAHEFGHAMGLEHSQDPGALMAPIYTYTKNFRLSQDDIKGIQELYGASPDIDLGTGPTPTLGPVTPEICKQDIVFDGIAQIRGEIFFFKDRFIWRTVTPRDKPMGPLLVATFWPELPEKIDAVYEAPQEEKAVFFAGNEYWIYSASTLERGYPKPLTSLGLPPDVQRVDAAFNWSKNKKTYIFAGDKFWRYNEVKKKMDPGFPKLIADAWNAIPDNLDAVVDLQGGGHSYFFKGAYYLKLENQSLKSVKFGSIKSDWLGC

Compound	IC50 [1]	Ratio [2]	Ratio [3]	Ratio [4]	Selectivity ratio [5]
CCCCCc1ccc(C(=O)NO)cc1	41 µM				
O=C1C=CC(=O)C1=Cc1ccc(Cl)cc1Cl		520	< 33	61	9
Cc1cc(Cl)ccc1/C=C/C(=O)NO	0.8 µM				
Cc1cc(Cl)ccc1C=C1C(=O)C=CC1=O		580		58	9
CCCCCc1ccc(C=C2C(=O)C=CC2=O)cc1		80			
